Results as given in article PMC6465301, “Enzyme-responsive progelator cyclic peptides for minimally invasive delivery to the heart post-myocardial infarction” (Nature Communications, 2019).
Bridge positions count the residues as written; N and C are the ends. Peptide text beside a SMILES is read from it.

Legend:
[1] = tested on: platelet-poor plasma (PPP)
Procedure: For all measurements, peptide stocks in 1× DPBS were prepared such that the final concentrations (v/v) in blood or plasma were 1:10, 1:100, 1:500,1:1000, 1:5000, 1:10,000, and 1:20,000 (peptide/fluid volume). Controls with collagen as a procoagulant initial platelet-adhesive surface (0.095 mg mL^−1 or 1:240 dilution) or with calcium chelated by sodium citrate utilized 1× DPBS as a vehicle to ensure consistent blood dilution in all experiments. Peptide stocks, whole human blood, isolated RBCs, and PPP were warmed to 37 °C immediately prior to use. Plate reader measurements were conducted on an EnSpire Multimode Plate Reader with 96-well tissue culture plates (TCP).
PPP was isolated from citrated whole human blood through two rounds of centrifugation at 2000 × g for 10 min and collection of the upper two-third layer. Briefly, 100 µL of PPP, 50 µL of peptide stock or additive (4× final concentration), and 50 µL of CaCl2 (50 mM) were mixed and added to a 96-well plate and incubated at 37 °C for kinetics measurements. For each sample, n = 6 repeats were conducted. Coagulation profiles were obtained by measuring well absorbance at 405 nm at 30 s intervals for 60 min. Onset to clotting was detected as a sharp increase in sample turbidity.

thermolysin = target: T1, thermolysin (Bacillus thermoproteolyticus, UniProt P00800); test: Time course rheology of thermolysin-induced bulk gelation and gel stability; format: in vitro ADME; settings: 10 mM in 1× DPBS pH 7.4, thermolysin 1:4500, 37 °C, continuous rheological measurement
T1 construct: purchased Promega V4001
T1 sequence (P00800 233-548): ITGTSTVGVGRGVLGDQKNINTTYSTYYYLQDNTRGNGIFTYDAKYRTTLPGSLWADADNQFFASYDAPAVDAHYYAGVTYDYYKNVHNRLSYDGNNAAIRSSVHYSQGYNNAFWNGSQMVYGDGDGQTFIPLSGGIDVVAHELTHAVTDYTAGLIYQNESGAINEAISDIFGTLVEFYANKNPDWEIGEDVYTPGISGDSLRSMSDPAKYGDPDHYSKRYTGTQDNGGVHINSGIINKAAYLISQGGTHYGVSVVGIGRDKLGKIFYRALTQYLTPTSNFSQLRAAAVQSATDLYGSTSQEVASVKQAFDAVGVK
Procedure: All peptide samples were prepared at 10 mM peptide, except for those used to assess the effect of SAP functionalization with respect to weight (15 mg mL^−1). Viscous and viscoelastic properties were assessed using a stress-controlled rheometer (TA Instruments AR-G2) equipped with a Peltier plate to control temperature and a 20 mm diameter parallel plate geometry. Unless otherwise stated all measurements were taken at an angular frequency of 2.5 rad s^−1, strain of 0.5%, and temperature of 37 °C. Measurements were performed with a gap height of 1000 µm and repeated three times (except for step-strain and time course measurements) to ensure reproducibility. To prevent water evaporation, mineral oil was wrapped around the edge of the geometry at the air–sample interface. For viscoelastic measurements the apparatus was used in oscillatory mode. […] The dynamic moduli of the hydrogels were measured as a function of frequency in the range 0.25–100 rad s^−1 at a strain of 0.5%. Continuous step-strain oscillations were used to monitor hydrogel healing through disruption (3 min, 100% strain) and recovery (15 min, 0.5% strain) cycles (n = 3). For viscosity measurements the apparatus was used in steady-state flow mode. The viscosity of the samples was measured as a function of shear rate in the range 0.1–10 s^−1 (5% tolerance). […]

red blood cells (RBCs) = test: Hemolysis assay of red blood cells; format: cell-based; settings: positive control at 1%, defines 100% hemolysis; human RBCs, 1 h, 37 °C; mean of n = 4
Procedure: RBCs were isolated by centrifugation of 40 mL citrated whole human blood at 500 × g for 5 min, followed by gentle washes with 150 mM NaCl (×1) and 1× DPBS (×3). Isolated RBCs were diluted 1:50 into 1× DPBS (pH 7.4) and lightly agitated to prevent settling. Briefly, 190 µL of dilute RBCs and 10 µL of peptide stock or additive (20× final concentration) were mixed and added to a 96-well plate (n = 4 repeats), covered, and incubated at 37 °C for 1 h. Plates were centrifuged at 500 × g to pellet intact RBCs using a centrifuge equipped with a microplate rotor. Supernatant (100 µL) was transferred to a new 96-well plate, taking care not to disturb the pellet. Absorbance of the supernatant was measured at 540 nm to detect released hemoglobin. To calculate % hemolysis, absorbances were corrected for background absorbance from untreated vehicle and then normalized to 1% Triton X-100-treated RBCs to represent 100% hemolysis. %Hemolysis was calculated according to the following equation:2 %Hemolysis=Absexperiemental-Absnegativecontrol/Abspositivecontrol-Absnegativecontrol×100, where Absexperiemental is the average well absorbance pertaining to RBCs pertaining to the additive sample being analyzed, Absnegative control is the average well absorbance for RBCs incubated with vehicle (1× DPBS), and Abspositive control is the average well absorbance for RBCs containing 1% Triton X-100. […]

collagen
Pro-thrombotic profile in PPP [1]: lack of change in pro-thrombotic profiles

CC(C)C[C@@H]1NC(=O)CNC(=O)[C@H](CC(C)C)NC(=O)[C@@H]2CCCN2C(=O)[C@H](CC(C)C)NC(=O)[C@H](CC(=O)O)NC(=O)[C@H](CC(C)C)NC(=O)[C@H](CCCCN)NC(=O)[C@H](CC(C)C)NC(=O)[C@H](CC(=O)O)NC(=O)[C@H](CC(C)C)NC(=O)[C@H](CCCCN)NC(=O)[C@H](CC(C)C)NC(=O)[C@H](CC(=O)O)NC(=O)[C@H](CC(C)C)NC(=O)[C@H](CCCCN)NC(=O)[C@@H](N)CSSC[C@@H](C(N)=O)NC(=O)CNC(=O)[C@H](C)NC1=O [KLDLCyclic] (H-CKLDLKLDLKLDLPLGLAGC-NH2; disulfide 1-20)
Stability of viscoelastic properties of resulting gel in the presence of thermolysin (thermolysin): no change for up to 3 days

Triton X-100
%Hemolysis (red blood cells (RBCs)): 100.00%
